Patent publication US6913767B1, “Compositions for microencapsulation of antigens for use as vaccines” (priority 1993, dated 2005)

Experiment: Stability (intact fraction) of QS21
Assay type: physicochemical
Conditions: same time (74 days), same conditions
Procedure: QS21 controls were also run. In RP-HPLC analysis, the rgp120 peak elutes before the QS21 peak and, therefore, this method provides simultaneous quantitation of QS21 and rgp120 released from the microspheres.
Microspheres containing QS21, or QS21 with MN rgp120, were incubated in physiological buffer at 37° C. to assess the time for release of the second burst.

## QS21
  intact QS21 in solution: less than 25%
